Reference: PMC10818515, “Improvement of the Thermal Stability and Aqueous Solubility of Three Matrine Salts Assembled by the Similar Structure Salt Formers” (Pharmaceuticals, 2024)
In brackets after ≈: the same amount, converted by molar mass. Read-outs that look alike come from different tables or passages of the source.

Test: Equilibrium solubility by the shake flask method
Format: physicochemical
Conditions: 37 °C; for Equilibrium solubility, Concentration / solubility thermodynamic at 72 h: n = 3; for solubility thermodynamic at 72 h: thermodynamic from solid, read-out: Equilibrium solubility, Concentration
Experimental: Aqueous solubility is one of the key factors affecting the bioavailability of drugs. […] Generally, the charged part has high aqueous solubility. […] The concentration of the samples was analyzed through high-performance liquid chromatography. The mobile phase consisted of methanol, acetonitrile, and phosphate buffer (15:15:70).

SMILES | Equilibrium solubility, Concentration (H2O (purified water)) [mg/mL] | Solubility relative to that of MAT (acetate buffer (pH 4.5)) [times] | Solubility relative to that of MAT (hydrochloric acid solution (pH 1.2)) [times] | Equilibrium solubility, Concentration (pH = 1.2 hydrochloric acid solution) [mg/mL] | Equilibrium solubility, Concentration (pH = 4.5 acetic acid buffer) [mg/mL] | Equilibrium solubility, Concentration (pH = 6.8 phosphate buffer) [mg/mL] | Solubility relative to that of MAT (phosphate buffer (pH 6.8)) [times] | Solubility relative to that of MAT (pure water) [times] | solubility thermodynamic at 72 h (aqueous buffer, pH = 4.5 acetic acid buffer) [mg/mL] | solubility thermodynamic at 72 h (aqueous buffer, pH = 6.8 phosphate buffer) [mg/mL] | solubility thermodynamic at 72 h (simulated gastric fluid, pH = 1.2 hydrochloric acid solution) [mg/mL] | solubility thermodynamic at 72 h (H2O (purified water)) [mg/mL]
O=C(O)c1c(O)cccc1O.O=C1CCCC2C3CCCN4CCCC(CN12)C34 (stereo not drawn) [MAT-26DHB, MAT-2,6-dihydroxybenzoic acid] | 7.42 ± 0.45 | 0.09 | 0.14 | 13.08 ± 1.52 | 8.23 ± 0.10 | 5.71 ± 0.75 | 0.09 | 0.11 | – | – | – | –
O=C1CCC[C@@H]2[C@H]3CCCN4CCC[C@@H](CN12)[C@@H]34 [MAT, Matrine] | – | – | – | – | – | – | – | – | 91.8 ± 2.31 (≈ 370 mM) | 64.9 ± 1.13 (≈ 261 mM) | 90.9 ± 1.01 (≈ 366 mM) | 65.36 ± 0.53 (≈ 263 mM)
